From the supplement of paper PMC10307832

What was measured:
Assay in all cases: relative viability (nuclei count vs DMSO), 5 days (fraction); higher = more cells survive
Idelalisib + Palbociclib = compound: CC[C@H](Nc1ncnc2[nH]cnc12)c1nc2cccc(F)c2c(=O)n1-c1ccccc1 [Idelalisib] + CC(=O)c1c(C)c2cnc(Nc3ccc(N4CCNCC4)cn3)nc2n(C2CCCC2)c1=O [Palbociclib] (partner 0.5 µM)
How it was run: (§1)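 Lung cancer cell lines in 1536-well plates were dosed by pin tool the day after seeding, either with one drug alone or with a fixed anchor-drug dose plus five library-drug doses (not always all listed) in √10 steps. After 5 days, cells were fixed and their nuclei stained in one step (final 0.05% Triton X-100, 1% formaldehyde, 1 ug/ml Hoechst), then counted on 4× images. Relative viability is the nuclei count in treated wells divided by that in vehicle wells. Values are medians of duplicate plates.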

Idelalisib + Tozasertib = compound: CC[C@H](Nc1ncnc2[nH]cnc12)c1nc2cccc(F)c2c(=O)n1-c1ccccc1 [Idelalisib] + Cc1cc(Nc2cc(N3CCN(C)CC3)nc(Sc3ccc(NC(=O)C4CC4)cc3)n2)n[nH]1 [Tozasertib] (partner 0.1 µM)
How it was run: as §1

Pemetrexed + AZD7762 = compound: Nc1nc2[nH]cc(CCc3ccc(C(=O)N[C@@H](CCC(=O)O)C(=O)O)cc3)c2c(=O)[nH]1 [Pemetrexed] + NC(=O)Nc1cc(-c2cccc(F)c2)sc1C(=O)N[C@H]1CCCNC1 [AZD7762] (partner 0.2 µM)
How it was run: as §1

Pemetrexed + Vorinostat = compound: Nc1nc2[nH]cc(CCc3ccc(C(=O)N[C@@H](CCC(=O)O)C(=O)O)cc3)c2c(=O)[nH]1 [Pemetrexed] + O=C(CCCCCCC(=O)Nc1ccccc1)NO [Vorinostat] (partner 1 µM)
How it was run: as §1

| Cell Line | relative viability (Idelalisib + Palbociclib; first compound 0.04 µM) | relative viability (Idelalisib + Palbociclib; first compound 0.1265 µM) | relative viability (Idelalisib + Palbociclib; first compound 0.4 µM) | relative viability (Idelalisib + Palbociclib; first compound 1.265 µM) | relative viability (Idelalisib + Palbociclib; first compound 4 µM) | relative viability (Idelalisib + Tozasertib; first compound 0.04 µM) | relative viability (Idelalisib + Tozasertib; first compound 0.1265 µM) | relative viability (Idelalisib + Tozasertib; first compound 0.4 µM) | relative viability (Idelalisib + Tozasertib; first compound 1.265 µM) | relative viability (Idelalisib + Tozasertib; first compound 4 µM) | relative viability (Pemetrexed + AZD7762; first compound 0.002 µM) | relative viability (Pemetrexed + AZD7762; first compound 0.006325 µM) | relative viability (Pemetrexed + AZD7762; first compound 0.02 µM) | relative viability (Pemetrexed + AZD7762; first compound 0.06325 µM) | relative viability (Pemetrexed + AZD7762; first compound 0.2 µM) | relative viability (Pemetrexed + Vorinostat; first compound 0.002 µM) | relative viability (Pemetrexed + Vorinostat; first compound 0.006325 µM) | relative viability (Pemetrexed + Vorinostat; first compound 0.02 µM) | relative viability (Pemetrexed + Vorinostat; first compound 0.06325 µM) | relative viability (Pemetrexed + Vorinostat; first compound 0.2 µM) |
| --- | --- | --- | --- | --- | --- | --- | --- | --- | --- | --- | --- | --- | --- | --- | --- | --- | --- | --- | --- | --- |
| NCI-H3122 | 0.172 | 0.195 | 0.185 | 0.214 | 0.203 | 0.377 | 0.372 | 0.41 | 0.4 | 0.399 | 1.04 | 0.863 | 0.966 | 0.4 | 0.276 | 1.12 | 0.893 | 0.96 | 0.755 | 0.454 |
| NCI-H2170 | 0.398 | 0.434 | 0.384 | 0.347 | 0.336 | 0.796 | 0.706 | 0.69 | 0.727 | 0.633 | 0.873 | 0.916 | 0.864 | 0.774 | 0.357 | 0.564 | 0.813 | 0.899 | 0.823 | 0.45 |
| NCI-H1793 | 0.331 | 0.27 |  | 0.298 | 0.26 | 0.344 | 0.311 | 0.222 | 0.229 | 0.225 | 0.468 | 0.404 | 0.966 | 0.446 | 0.509 | 0.613 | 0.792 | 0.69 | 0.986 | 0.796 |
| BEN | 0.532 | 0.438 | 0.452 | 0.509 | 0.413 | 0.479 | 0.562 | 0.542 | 0.488 | 0.413 | 0.746 | 0.849 | 0.765 | 0.638 | 0.648 | 0.6 | 0.578 | 0.587 | 0.573 | 0.555 |
| NCI-H647 | 0.393 | 0.319 | 0.25 | 0.242 | 0.219 | 0.313 | 0.394 |  | 0.0094 | 0.109 | 0.488 | 0.626 | 0.435 | 0.333 | 0.143 | 0.387 | 0.479 | 0.594 | 0.458 | 0.171 |
| PC-14 | 0.539 | 0.511 | 0.439 | 0.561 | 0.415 | 0.638 | 0.603 | 0.557 | 0.6 | 0.553 | 0.297 | 0.371 | 0.35 | 0.218 | 0.114 | 0.656 | 0.636 | 0.775 | 0.226 | 0.123 |
| HCC-78 | 0.443 | 0.446 | 0.411 | 0.466 | 0.352 | 0.314 | 0.389 | 0.392 | 0.388 | 0.295 |  | 0.505 | 0.42 | 0.3 | 0.236 |  | 0.447 | 0.401 | 0.294 | 0.328 |
| NCI-H1666 | 0.615 | 0.6 | 0.645 | 0.689 | 0.645 | 0.662 | 0.594 | 0.78 | 0.639 | 0.57 | 0.79 | 0.843 | 0.835 | 0.72 | 0.456 | 1.01 | 0.95 | 1.03 | 0.924 | 0.863 |
| LU99A | 0.41 | 0.424 | 0.357 | 0.429 | 0.39 | 0.271 | 0.292 | 0.278 | 0.306 | 0.318 | 0.356 | 0.376 | 0.371 | 0.293 | 0.178 | 0.488 | 0.464 | 0.495 | 0.466 | 0.385 |
| 201T | 0.375 | 0.344 | 0.322 | 0.36 | 0.294 | 1.07 | 1.01 | 0.785 | 0.947 | 0.667 | 0.606 | 0.612 | 0.725 | 0.512 | 0.374 | 0.867 | 0.971 | 1.03 | 1.03 | 0.848 |
| HCC-15 | 0.815 | 0.73 | 0.633 | 0.832 | 0.598 | 0.556 | 0.419 | 0.356 | 0.384 | 0.31 | 1.11 | 1.13 | 1.48 | 0.903 | 0.448 | 0.821 | 0.76 | 0.878 | 0.69 | 0.345 |
